What was measured:
[1] = tested on: chick chorioallantoic membrane (CAM); assay: Macrophage infiltration of FGF-2 stimulated CAMs (KUL1 staining); assay type: in vivo; conditions: FGF-2 stimulation, no cortisone acetate; FIG. 3D
Protocol: The chick chorioallantoic membrane (CAM) assays were carried out with some modifications (19). For all experiments CAMs of 10-day-old chick embryos obtained from Charles River (North Franklin, CT) were separated from the shell membrane. Filter discs either non-treated (inflammation assays) pretreated (angiogenesis assays) with cortisone acetate (3.0 mg/ml) containing RPMI only or FGF-2 (40 ng). CAMs were either non-treated or treated topically with Mab XL313, XL166 or a non-specific control antibody (10 μg/embryo every 24 h for three consecutive treatments). For peptide induction experiments, CAMs were stimulated with 100 ng/ml of the RGD peptides (P-1, P-2, P-C) in the presence or absence of the P38MAPK inhibitor, SB202190 (10 μM). At the end of the incubation period the embryos were sacrificed and the CAM tissues were analyzed. Angiogenesis was quantified by counting the number of angiogenic branching blood vessels within the area of the filter disc. The angiogenic index was determined by subtracting the mean number of blood vessel branch points from untreated CAMs from each experimental condition. […]
CAMs examined for accumulation of granulation tissue were harvested, fixed in 4% PFA and paraffin embedded and sectioned (4 μm) and stained with Giemsa. CAM tissues analyzed via immunofluorescence were harvested, embedded with OCT, snap frozen and sectioned (4 μM). […]

[2] = tested on: chick chorioallantoic membrane (CAM); assay: Chick CAM inflammation assay, induction by RGD collagen peptides; assay type: in vivo; conditions: FGF-2, absence of cortisone acetate; FIG. 5D
Protocol: (§1) The chick chorioallantoic membrane (CAM) assays were carried out with some modifications (19). For all experiments CAMs of 10-day-old chick embryos obtained from Charles River (North Franklin, CT) were separated from the shell membrane. Filter discs either non-treated (inflammation assays) pretreated (angiogenesis assays) with cortisone acetate (3.0 mg/ml) containing RPMI only or FGF-2 (40 ng). CAMs were either non-treated or treated topically with Mab XL313, XL166 or a non-specific control antibody (10 μg/embryo every 24 h for three consecutive treatments). […] At the end of the incubation period the embryos were sacrificed and the CAM tissues were analyzed. Angiogenesis was quantified by counting the number of angiogenic branching blood vessels within the area of the filter disc. The angiogenic index was determined by subtracting the mean number of blood vessel branch points from untreated CAMs from each experimental condition. Eight to twelve embryos were used per condition and experiments were repeated at least three times.
The effects of the soluble RGD containing collagen peptides on inflammation were examined.

[3] = tested on: chick chorioallantoic membrane (CAM); assay: Chick CAM inflammation assay, FGF-2 induced, antibody treatment; assay type: in vivo; conditions: FGF-2 stimulation in the absence of cortisone acetate; FIG. 3E
Protocol: as §1, with “Eight to twelve embryos were used per condition and experiments were repeated at least three times.” left out
The chick CAM has been routinely used to assess inflammation and granulation tissue formation, which are largely dependent on infiltration of chick heterophils (the avian equivalent of neutrophils), macrophages and activated fibroblasts (36,37). To study the potential differential biological impact of RGD epitopes, FGF-2 induced inflammation was examined by carrying out similar experiments in the absence of cortisone acetate and quantifying CAM thickening. […]

chick embryos = assay: Circulating Mab XL313 reactive epitope in chick embryo serum, solid-phase ELISA; assay type: in vivo; conditions: serum collected three days after FGF-2 stimulation, FIG. 5A
Protocol: Due to the differential expression and bio-distribution of the RGDKGE (SEQ ID NO. 1) epitope in angiogenic CAM tissues and its expression in macrophage-conditioned medium, it was determined whether a soluble circulating form of this RGDKGE (SEQ ID NO. 1) epitope could be generated. To examine this possibility, chick embryos were either un-treated or stimulated with FGF-2 and serum, and collected three days later. […] In contrast, a (P<0.05) 2-fold increase was detected in the levels of circulating XL313 epitope following FGF-2 stimulation. These findings indicated the differential release of a soluble form of this RGDKGE (SEQ ID NO. 1) containing collagen epitope.

PDL-1 = PDL-1 Western blot, M21 melanoma cells attached to αvβ3 ligands; assay type: cell-based, human; conditions: immobilized epitope vs uncoated wells; 15 minute incubation; FIG. 15
Protocol: FIGS. 14A and 14B are blots of integrin αvβ3 expressing melanoma cells (M21 and CLL-49) and FIG. 14C is a blot depicting that endothelial cells (HUVEC) were allowed to attach to well coated with either a non-αvβ3 binding ligand (native collagen-IV) or an αvβ3 binding ligand (denatured collagen-IV). Whole cell lysates were prepared and the relative levels of PDL-1 or loading control β-actin were assessed by Western blot.
Integrin αvβ3 expressing melanoma cells (M21) were seeded on control uncoated wells or wells immobilized with the XL313 cryptic collagen epitope (RGDKGE (SEQ ID NO. 1)). Following a 15 minute incubation cell lysates were prepared. The relative levels of PDL-1 or loading control β-actin were assessed by Western blot.
Integrin αvβ3 expressing melanoma cells M21 (FIG. 14A) and CCL-49 (FIG. 14B) and endothelial cells (HUVEC) (FIG. 14C) were attached to wells coated with either a non-αvβ3 binding ligand (native collagen-IV) or an αvβ3 binding ligand (denatured collagen-IV). Whole cell lysates were prepared and the relative levels of PDL-1 or β-actin loading control were assessed.
Integrin αvβ3 expressing melanoma cells (M21) were seeded onto control uncoated wells or wells immobilized with the XL313 cryptic collagen epitope (RGDKGE (SEQ ID NO. 1)) (FIG. 15). Following an incubation period, cell lysates were prepared and relative levels of PDL-1 were assessed.

Row | Substance | macrophage infiltration of the CAMs, enhancement as compared to control [1] | CAMs exhibiting extensive tissue thickening [2] | CAMs showing robust formation of thick granulation tissue [3] | increase in levels of circulating XL313 epitope in serum (chick embryos) | levels of PDL-1 protein in M21 melanoma cells on immobilized epitope (PDL-1)
1 | FGF-2: Fibroblast growth factor-2 from R&D Systems, stimulus of CAM angiogenesis and inflammation | over 2 fold | 55%-60% | approximately 50% | 2 fold | –
2 | RGDKGE (immobilized on wells) [XL313 epitope, αvβ3 ligand] | – | – | – | – | enhanced levels of PDL-1 protein

Source: patent US11998600B2, “Enhancing the therapeutic activity of an immune checkpoint inhibitor” (MaineHealth, priority 2015, dated 2024)
